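Cultured in 96-well plates, cells were exposed to test compound for 48 hours across five concentrations. Here, GI50 denotes the concentration required for 50% inhibition of growth. TGI: concentration producing complete growth inhibition.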
How the values were obtained:
Assay in all cases: inhibition of tumour cell growth, NCI panel, 48 h
CCRF-CEM leukemia = system: CCRF-CEM leukemia
OVCAR-3 ovarian = system: OVCAR-3 ovarian
MOLT-4 leukemia = system: MOLT-4 leukemia
NCI-H522 lung = system: NCI-H522 lung
COLO 205 colon = system: COLO 205 colon
NCI-H460 lung = system: NCI-H460 lung
CAKI-1 renal = system: CAKI-1 renal
RPMI-8226 leukemia = system: RPMI-8226 leukemia
SK-OV-3 ovarian = system: SK-OV-3 ovarian
MDA-MB-435 = system: MDA-MB-435

Row | SMILES | TGI (CCRF-CEM leukemia) | TGI (OVCAR-3 ovarian) | TGI (MOLT-4 leukemia) | TGI (NCI-H522 lung) | TGI (COLO 205 colon) | TGI (NCI-H460 lung) | TGI (CAKI-1 renal) | TGI (RPMI-8226 leukemia) | TGI (SK-OV-3 ovarian) | GI50 (RPMI-8226 leukemia) | GI50 (CCRF-CEM leukemia) | GI50 (SK-OV-3 ovarian) | GI50 (OVCAR-3 ovarian) | GI50 (MDA-MB-435) | TGI (MDA-MB-435) | GI50 (MOLT-4 leukemia) | GI50 (COLO 205 colon) | GI50 (NCI-H460 lung) | GI50 (CAKI-1 renal) | GI50 (NCI-H522 lung)
1 | Cc1cccc(NC(=O)CC(=O)N2N=C(N(CCC#N)c3ccc(Cl)cc3)CC2c2ccccc2)c1 (centres undefined) | > 100 µM | > 100 µM | > 100 µM | > 100 µM | > 100 µM | > 100 µM | > 100 µM |  |  |  |  |  |  |  |  |  |  |  |  | 
2 | CCCc1[nH]nc(CCC(=O)N(Cc2ccccc2)Cc2ccccc2)c1CC | > 100 µM | > 100 µM | > 100 µM | > 100 µM | > 100 µM | > 100 µM | > 100 µM | > 100 µM | > 100 µM |  |  |  |  |  |  |  |  |  |  | 
3 | COc1ccc(N2C(C)=C(C#N)C34C(=O)N(c5ccccc5)C(=O)C3=C(O)C=CC24O)cc1 (centres undefined) | 15.6 µM | 10.4 µM | 71.7 µM |  | 23.2 µM | 61.4 µM | 16.6 µM | 19.3 µM | > 100 µM | 3.44 µM | 3.09 µM | 36.2 µM | 1.76 µM | 5.5 µM | 28.7 µM | 21.2 µM | 10.8 µM | 14.6 µM | 2.65 µM | 
4 | O=C1c2ccccc2-c2c1c1ccccc1c(=O)n2CCCNCCCNCCCn1c2c(c3ccccc3c1=O)C(=O)c1ccccc1-2 | 0.175 µM | 0.232 µM |  | 0.0554 µM | 8.1 µM | 0.266 µM | 1.7 µM |  | 6.04 µM |  | < 0.01 µM | 1.9 µM | 0.0818 µM | 0.338 µM | 2.26 µM | < 0.01 µM | 0.572 µM | < 0.0169 µM | 0.342 µM | < 0.01 µM
5 | CNS(=O)(=O)NN(C)S(=O)(=O)c1ccc(F)cc1 | > 100 µM | > 100 µM | > 100 µM | > 100 µM | > 100 µM | > 100 µM | > 100 µM | > 100 µM | > 100 µM |  |  |  |  |  |  |  |  |  |  | 
6 | CC1=NCCc2c1[nH]c1cc(O)ccc21 | > 100 µM | > 100 µM | > 100 µM |  | > 100 µM | > 100 µM | > 100 µM | > 100 µM | > 100 µM |  |  |  |  |  |  |  |  |  |  | 
7 | COc1ccccc1NC(=O)C1=C(C)NC(C)=C(C(=O)Nc2ccccc2OC)C1c1ccccc1F | > 100 µM | > 100 µM | > 100 µM |  | > 100 µM | > 100 µM | > 100 µM | > 100 µM | > 100 µM |  |  |  |  |  |  |  |  |  |  | 
8 | COC(=O)CCC1CCc2c(OC)ccc(O)c2C1=O (centres undefined) | > 100 µM | > 100 µM | > 100 µM | > 100 µM | > 100 µM | > 100 µM |  | > 100 µM | > 100 µM |  |  |  |  |  |  |  |  |  |  | 
9 | COc1nc(NC2OCC(OC(C)=O)C(OC(C)=O)C2OC(C)=O)c(N=CC=Nc2c(NC3OCC(OC(C)=O)C(OC(C)=O)C3OC(C)=O)nc(OC)n(C)c2=O)c(=O)n1C (centres undefined) |  | > 100 µM |  | > 100 µM | > 100 µM | > 100 µM |  | > 100 µM | > 100 µM |  |  |  |  |  |  |  |  |  |  | 
10 | COCCN1C2=CCCCC2=Nc2c1nc(N)[nH]c2=O | > 100 µM | > 100 µM | > 100 µM | > 100 µM | > 100 µM | > 100 µM | > 100 µM | > 100 µM | > 100 µM |  |  |  |  |  |  |  |  |  |  | 
